Measured values published in PubChem BioAssay AID1963851 (Molecular Pharmacology Branch, DTP, NCI, 2024).

Tested on: 188146-221-R-J1-PDC complex spheroid viability
Assay: Anticancer human tumor 188146-221-R-J1-PDC patient-derived colon adenocarcinoma cell line growth inhibition [POLQ]
Conditions: for IC50: curve of first compound; for viability, T/C: stronger effect = lower value; active = viability on the fitted dose curve at most 10% of control; inactive = the rest
Experimental: Multicellular complex tumor spheroid response to Polymerase (POL) inhibitors (novobiocin, ART-558, RP6685) in combination with a variety of drugs and investigational agents in selected tumor cell lines
The POL inhibitors (novobiocin, ART-558, and RP6685) were evaluated both individually and in combination with standard of care and investigational anticancer small molecules within a complex spheroid model of solid tumors. . Complex spheroids include a stromal component modeled by human endothelial cells (HUVEC) and fibroblasts modeled by human mesenchymal stem cells (MSCs). The concentration ranges selected for each drug and investigational agent were based upon clinically achievable concentrations if the clinical Cmax of the agent was known.
Compounds. The drugs and investigational agents: novobiocin (NSC847541), ART-558 (NSC835418), RP-6685 (NSC848927), peposertib (NSC802822), ceralasertib (NSC780249), elimusertib (NSC800525), camonsertib (NSC841442), AZD-1390 (NSC803789), olaparib (NSC753686), talazoparib (NSC767125), rucaparib (NSC756644), sotorasib (NSC818433), MRTX-1133 (NSC836407), SN-38 (NSC673596), topotecan (NSC609699), epotoside (NSC141540), doxorubicin (NSC123127), gemcitabine (NSC613327), 5-fluorouracil (NSC19893), paclitaxel (NSC125973), vemurafenib (NSC761431), MSA-2 (NSC828583), SN-011 (NSC837082), adavosertib (NSC754352), prexasertib (NSC758257), carboplatin (NSC241240) and oxaliplatin (NSC266046), were obtained from the National Cancer Institute (NCI) Developmental Therapeutics Program Chemical Repository (21). The FDA-approved anticancer drug set is available from the Developmental Therapeutics Program at https://dtp.cancer.gov/organization/dscb/obtaining/. […] The stock solutions were prepared in dimethyl sulfoxide (DMSO, Sigma-Aldrich, St. Louis, MO, cat. D2650), except for the platinum compounds which were prepared in saline (Quality Biological, Gaithersburg, MD, cat. 114-055-101), at 800-fold the tested concentration and stored at -70 degrees C prior to their use. All drugs and investigational agents were tested over a range starting from a high concentration at or near the clinical Cmax and decreasing in half-log increments. If the clinical Cmax for an agent had not been determined, the highest concentration tested was 10 microM, except for SN-38, which was tested at a high concentration of 1 microM.
Cell Culture. All cells were maintained in an incubator at 37 degrees C and 5% CO2 with 95% humidity. The PDC lines were cultured according to standard operating procedures established by the NCI PDMR (https://pdmr.cancer.gov). Table 3 of the manuscript, lists the cell lines along with the number of the three cell types plated to form the mct-spheroids and media for tumor cell growth. After thawing, all PDC lines, except 997537-175-T-J1-PDC and 415267-285-R-J2-PDC, were cultured in Matrigel-coated flasks prepared with a working solution of 1X Ham's F-12 nutrient mix, without supplementation (Thermo Fisher Scientific, cat. 11765054), 100 U/mL penicillin-streptomycin (Thermo Fisher Scientific, cat. 15140122), and 2.5% Matrigel (Corning Inc., Corning, NY, cat. 354248) for the first three passages. The two PDC lines 997537-175-T-J1-PDC and 415267-285-R-J2-PDC were cultured on uncoated flasks. The 857933-349-R-J2-PDC line was cultured in 6C/Colon 1B media containing advanced DMEM/F-12 (Thermo Fisher Scientific, cat. 12634028), 10 mM HEPES (Thermo Fisher Scientific, cat. 15630080), 1X GlutaMAX supplement (Thermo Fisher Scientific, cat. 35050061), 0.1 mg/mL primocin (InvivoGen, San Diego, CA, cat. ant-pm-2), 10% defined fetal bovine serum, heat inactivated (HyClone Laboratories Inc., Logan, UT, cat. SH30070.03HI), 50% L-WRN conditioned media (ATCC, cat. CRL-3276), 1.25 mM N-Acetyl-L-cysteine (Sigma-Aldrich, cat. A9165), 10 mM nicotinamide (Sigma-Aldrich, cat. N0636), 1X B-27 supplement (Thermo Fisher Scientific, cat. 17504044), 1X N-2 supplement (Thermo Fisher Scientific, cat. […]

[1] = second compound 0.0316 µM, first compound 0.0316 µM
[2] = second compound 0.0316 µM, first compound 0.1 µM
[3] = second compound 0.0316 µM, first compound 0.316 µM
[4] = second compound 0.0316 µM, first compound 1 µM
[5] = second compound 0.1 µM, first compound 0.0316 µM
[6] = second compound 0.1 µM, first compound 0.1 µM
[7] = second compound 0.1 µM, first compound 0.316 µM
[8] = second compound 0.1 µM, first compound 1 µM
[9] = second compound 0.316 µM, first compound 0.0316 µM
[10] = second compound 0.316 µM, first compound 0.1 µM
[11] = second compound 0.316 µM, first compound 0.316 µM
[12] = second compound 0.316 µM, first compound 1 µM
[13] = second compound 1 µM, first compound 0.0316 µM
[14] = second compound 1 µM, first compound 0.1 µM
[15] = second compound 1 µM, first compound 0.316 µM
[16] = second compound 1 µM, first compound 1 µM
[17] = second compound 3.16 µM, first compound 0.0316 µM
[18] = second compound 3.16 µM, first compound 0.1 µM
[19] = second compound 3.16 µM, first compound 0.316 µM
[20] = second compound 3.16 µM, first compound 1 µM
[21] = second compound 10 µM, first compound 0.0316 µM
[22] = second compound 10 µM, first compound 0.1 µM
[23] = second compound 10 µM, first compound 0.316 µM
[24] = second compound 10 µM, first compound 1 µM
[25] = second compound 0.0316 µM, first compound 3.16 µM
[26] = second compound 0.0316 µM, first compound 10 µM
[27] = second compound 0.1 µM, first compound 3.16 µM
[28] = second compound 0.1 µM, first compound 10 µM
[29] = second compound 0.316 µM, first compound 3.16 µM
[30] = second compound 0.316 µM, first compound 10 µM
[31] = second compound 1 µM, first compound 3.16 µM
[32] = second compound 1 µM, first compound 10 µM
[33] = second compound 3.16 µM, first compound 3.16 µM
[34] = second compound 3.16 µM, first compound 10 µM
[35] = second compound 10 µM, first compound 3.16 µM
[36] = second compound 10 µM, first compound 10 µM
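Note: spheroids exposed to compounds for seven days.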

C=CCn1c(=O)c2cnc(Nc3ccc(N4CCN(C)CC4)cc3)nc2n1-c1cccc(C(C)(C)O)n1 + Nc1ccc(C#CCN(C(=O)Cc2ncc(C(F)(F)F)cc2C(F)(F)F)c2ccc(F)cc2)nn1
> 1000 nM: IC50 (second compound 0.0316 µM) | IC50 (second compound 0.1 µM) | IC50 (second compound 0.316 µM) | IC50 (second compound 1 µM) | IC50 (second compound 3.16 µM)
788 nM: IC50 (second compound 10 µM)
inactive: viability, T/C (second compound 0.0316 µM, first compound 0.00316 µM) 112% | viability, T/C (second compound 0.0316 µM, first compound 0.01 µM) 100% | viability, T/C [1] 98.6% | viability, T/C [2] 100% | viability, T/C [3] 102% | viability, T/C [4] 55.6% | viability, T/C (second compound 0.1 µM, first compound 0.00316 µM) 111% | viability, T/C (second compound 0.1 µM, first compound 0.01 µM) 97% | viability, T/C [5] 119% | viability, T/C [6] 117% | viability, T/C [7] 109% | viability, T/C [8] 57.1% | viability, T/C (second compound 0.316 µM, first compound 0.00316 µM) 115% | viability, T/C (second compound 0.316 µM, first compound 0.01 µM) 104% | viability, T/C [9] 115% | viability, T/C [10] 111% | viability, T/C [11] 84.6% | viability, T/C [12] 50.6% | viability, T/C (second compound 1 µM, first compound 0.00316 µM) 119% | viability, T/C (second compound 1 µM, first compound 0.01 µM) 106% | viability, T/C [13] 100% | viability, T/C [14] 122% | viability, T/C [15] 101% | viability, T/C [16] 55.9% | viability, T/C (second compound 3.16 µM, first compound 0.00316 µM) 107% | viability, T/C (second compound 3.16 µM, first compound 0.01 µM) 110% | viability, T/C [17] 114% | viability, T/C [18] 110% | viability, T/C [19] 108% | viability, T/C [20] 52.1% | viability, T/C (second compound 10 µM, first compound 0.00316 µM) 114% | viability, T/C (second compound 10 µM, first compound 0.01 µM) 114% | viability, T/C [21] 104% | viability, T/C [22] 110% | viability, T/C [23] 98.4% | viability, T/C [24] 37.2%

CC1COCCN1c1cc(C2(O)CC3CCC(C2)O3)c2cnn(-c3ccn[nH]3)c2n1 (stereo unspecified) + Nc1ccc(C#CCN(C(=O)Cc2ncc(C(F)(F)F)cc2C(F)(F)F)c2ccc(F)cc2)nn1
350 nM: IC50 (second compound 0.1 µM)
289 nM: IC50 (second compound 3.16 µM)
active: viability, T/C [28] 8.08% | viability, T/C [30] 7.87% | viability, T/C [32] 8.87% | viability, T/C [36] 7.06%
288 nM: IC50 (second compound 1 µM)
209 nM: IC50 (second compound 10 µM)
328 nM: IC50 (second compound 0.0316 µM)
249 nM: IC50 (second compound 0.316 µM)
inactive: viability, T/C [1] 88.7% | viability, T/C [2] 76.8% | viability, T/C [3] 49.4% | viability, T/C [4] 27% | viability, T/C [25] 18.9% | viability, T/C [26] 8.36% | viability, T/C [5] 109% | viability, T/C [6] 77.2% | viability, T/C [7] 54.2% | viability, T/C [8] 29.2% | viability, T/C [27] 18% | viability, T/C [9] 105% | viability, T/C [10] 72.1% | viability, T/C [11] 44.2% | viability, T/C [12] 24.3% | viability, T/C [29] 17% | viability, T/C [13] 95.8% | viability, T/C [14] 70.5% | viability, T/C [15] 52% | viability, T/C [16] 24.3% | viability, T/C [31] 15.6% | viability, T/C [17] 89.9% | viability, T/C [18] 80.7% | viability, T/C [19] 43.9% | viability, T/C [20] 26% | viability, T/C [33] 18.2% | viability, T/C [34] 7.84% | viability, T/C [21] 87.7% | viability, T/C [22] 66% | viability, T/C [23] 41.4% | viability, T/C [24] 21.1% | viability, T/C [35] 18.1%

CCCS(=O)(=O)Nc1ccc(F)c(C(=O)c2c[nH]c3ncc(-c4ccc(Cl)cc4)cc23)c1F + Nc1ccc(C#CCN(C(=O)Cc2ncc(C(F)(F)F)cc2C(F)(F)F)c2ccc(F)cc2)nn1
inactive: viability, T/C [1] 104% | viability, T/C [2] 116% | viability, T/C [3] 101% | viability, T/C [4] 84.7% | viability, T/C [25] 85.3% | viability, T/C [26] 33.6% | viability, T/C [5] 119% | viability, T/C [6] 98.2% | viability, T/C [7] 103% | viability, T/C [8] 89.2% | viability, T/C [27] 81.9% | viability, T/C [28] 29% | viability, T/C [9] 94.4% | viability, T/C [10] 99.6% | viability, T/C [11] 101% | viability, T/C [12] 88.7% | viability, T/C [29] 93.8% | viability, T/C [30] 29.2% | viability, T/C [13] 95.9% | viability, T/C [14] 96.7% | viability, T/C [15] 88.9% | viability, T/C [16] 76.8% | viability, T/C [31] 80.2% | viability, T/C [32] 33% | viability, T/C [17] 98.5% | viability, T/C [18] 104% | viability, T/C [19] 104% | viability, T/C [20] 77.2% | viability, T/C [33] 84% | viability, T/C [34] 30.6% | viability, T/C [21] 116% | viability, T/C [22] 112% | viability, T/C [23] 103% | viability, T/C [24] 91.5% | viability, T/C [35] 82.5% | viability, T/C [36] 33.1%
6330 nM: IC50 (second compound 1 µM)
6900 nM: IC50 (second compound 0.316 µM)
6270 nM: IC50 (second compound 3.16 µM)
6110 nM: IC50 (second compound 0.1 µM)
6670 nM: IC50 (second compound 0.0316 µM)
6540 nM: IC50 (second compound 10 µM)
